Columns and labels:
[1] = target: T1, Receptor-type tyrosine-protein phosphatase C (Homo sapiens, UniProt P08575); design: species or system Escherichia coli;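 also: inhibition of CD45 enzyme activity measured using DiFMUP as substrate; in other assays of this panel Not Active means under 50% inhibition at 10 µM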
T1 sequence (P08575 whole entry): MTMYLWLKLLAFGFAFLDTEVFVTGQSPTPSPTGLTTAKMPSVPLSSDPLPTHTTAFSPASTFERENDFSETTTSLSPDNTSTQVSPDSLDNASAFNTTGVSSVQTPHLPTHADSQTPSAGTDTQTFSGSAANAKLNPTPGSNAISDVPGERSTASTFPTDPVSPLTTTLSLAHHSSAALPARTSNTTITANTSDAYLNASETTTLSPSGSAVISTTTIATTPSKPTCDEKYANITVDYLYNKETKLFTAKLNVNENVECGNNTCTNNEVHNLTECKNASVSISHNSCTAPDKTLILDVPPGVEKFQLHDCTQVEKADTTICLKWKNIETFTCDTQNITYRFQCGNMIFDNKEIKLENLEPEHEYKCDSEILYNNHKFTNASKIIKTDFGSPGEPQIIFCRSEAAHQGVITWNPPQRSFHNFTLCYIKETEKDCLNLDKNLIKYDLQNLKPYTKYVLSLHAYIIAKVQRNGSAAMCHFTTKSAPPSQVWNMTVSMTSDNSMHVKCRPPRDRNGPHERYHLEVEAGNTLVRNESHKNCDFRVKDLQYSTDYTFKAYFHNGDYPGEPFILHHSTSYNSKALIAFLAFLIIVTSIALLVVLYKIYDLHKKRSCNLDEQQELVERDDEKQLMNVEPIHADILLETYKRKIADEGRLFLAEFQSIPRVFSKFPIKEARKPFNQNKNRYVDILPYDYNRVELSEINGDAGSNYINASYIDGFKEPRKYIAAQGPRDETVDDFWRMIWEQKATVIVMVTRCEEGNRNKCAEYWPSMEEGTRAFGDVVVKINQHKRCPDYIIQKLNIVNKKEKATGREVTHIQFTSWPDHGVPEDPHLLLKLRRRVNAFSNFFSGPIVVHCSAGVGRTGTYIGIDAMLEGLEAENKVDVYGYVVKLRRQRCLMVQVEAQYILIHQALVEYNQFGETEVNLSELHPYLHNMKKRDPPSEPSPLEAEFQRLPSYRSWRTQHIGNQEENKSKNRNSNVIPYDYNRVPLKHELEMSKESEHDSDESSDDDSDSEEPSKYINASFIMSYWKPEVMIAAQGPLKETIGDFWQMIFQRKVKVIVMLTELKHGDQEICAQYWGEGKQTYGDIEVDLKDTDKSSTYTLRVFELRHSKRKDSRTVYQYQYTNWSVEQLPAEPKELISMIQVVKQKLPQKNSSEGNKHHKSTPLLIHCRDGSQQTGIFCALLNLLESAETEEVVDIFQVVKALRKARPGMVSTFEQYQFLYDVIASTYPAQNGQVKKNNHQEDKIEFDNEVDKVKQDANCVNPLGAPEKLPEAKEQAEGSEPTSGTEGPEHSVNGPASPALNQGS

[2] = DRUGMATRIX: Platelet-Derived Growth Factor (PDGF) radioligand binding (ligand: [125I] PDGF); format: cell-based; details: nih3t3; Not Active = under 50% inhibition at 10 µM
[3] = DRUGMATRIX: GABAA, Flunitrazepam, Central radioligand binding (ligand: [3H] Flunitrazepam); format: cell membranes, Rattus norvegicus, Wistar, Brain, Membrane; details: Not Active = under 50% inhibition at 10 µM
D(3) dopamine receptor = D(3) dopamine receptor (Homo sapiens, UniProt P35462); assay: DRUGMATRIX: Dopamine D3 radioligand binding (ligand: [3H] Spiperone); format: cell membranes, CHO, Membrane; details: cho
Melanocortin receptor 5 = Melanocortin receptor 5 (Homo sapiens, UniProt P33032); format: cell membranes, HEK293, Membrane; details: hek293; also: in other assays of this panel Not Active means under 50% inhibition at 10 µM
[4] = target: C-C chemokine receptor type 2 (Homo sapiens, UniProt P41597); format: cell membranes, CHO-K1, Membrane; details: cho-k1; also: in other assays of this panel Not Active means under 50% inhibition at 10 µM
C-C chemokine receptor type 2, sequence (P41597 whole entry): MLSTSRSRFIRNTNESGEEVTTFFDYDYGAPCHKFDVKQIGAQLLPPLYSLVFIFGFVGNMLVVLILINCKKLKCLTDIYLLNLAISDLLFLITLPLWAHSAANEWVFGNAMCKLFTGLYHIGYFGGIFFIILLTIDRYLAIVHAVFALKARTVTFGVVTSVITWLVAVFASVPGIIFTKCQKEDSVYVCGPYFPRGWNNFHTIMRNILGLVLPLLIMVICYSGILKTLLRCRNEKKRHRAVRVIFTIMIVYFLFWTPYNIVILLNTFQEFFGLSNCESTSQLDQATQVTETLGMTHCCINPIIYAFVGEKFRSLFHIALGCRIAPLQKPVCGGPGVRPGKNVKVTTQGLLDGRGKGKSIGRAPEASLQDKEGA

Melanocortin receptor 5, sequence (P33032 whole entry): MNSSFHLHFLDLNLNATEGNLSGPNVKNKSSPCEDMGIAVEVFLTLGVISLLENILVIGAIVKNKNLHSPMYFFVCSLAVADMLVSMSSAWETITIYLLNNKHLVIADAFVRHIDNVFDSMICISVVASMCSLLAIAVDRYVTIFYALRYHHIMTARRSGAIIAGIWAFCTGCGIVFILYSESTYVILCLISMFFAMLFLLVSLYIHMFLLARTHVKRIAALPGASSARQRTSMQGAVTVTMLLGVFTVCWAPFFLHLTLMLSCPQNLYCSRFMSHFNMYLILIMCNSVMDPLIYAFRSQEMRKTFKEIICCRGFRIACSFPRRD
D(3) dopamine receptor, sequence (P35462 whole entry): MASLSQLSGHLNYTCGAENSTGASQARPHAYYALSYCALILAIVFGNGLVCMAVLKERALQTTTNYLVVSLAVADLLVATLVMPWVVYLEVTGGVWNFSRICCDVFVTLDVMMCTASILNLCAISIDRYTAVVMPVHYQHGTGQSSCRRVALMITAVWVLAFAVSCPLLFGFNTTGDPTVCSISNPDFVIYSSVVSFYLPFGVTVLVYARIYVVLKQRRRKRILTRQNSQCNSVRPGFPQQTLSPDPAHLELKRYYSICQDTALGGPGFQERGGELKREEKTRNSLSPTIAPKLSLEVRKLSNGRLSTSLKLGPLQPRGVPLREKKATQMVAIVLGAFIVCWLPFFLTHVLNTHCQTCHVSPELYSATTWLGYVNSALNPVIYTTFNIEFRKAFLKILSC

OC[C@H]1O[C@@H]2O[C@H]3[C@H](O)[C@@H](O)[C@@H](O[C@H]4[C@H](O)[C@@H](O)[C@@H](O[C@H]5[C@H](O)[C@@H](O)[C@@H](O[C@H]6[C@H](O)[C@@H](O)[C@@H](O[C@H]7[C@H](O)[C@@H](O)[C@@H](O[C@H]1[C@H](O)[C@H]2O)O[C@@H]7CO)O[C@@H]6CO)O[C@@H]5CO)O[C@@H]4CO)O[C@@H]3CO [ALFADEX]
Not Active: IC50 [1] | IC50 [2] | Ki [2] | IC50 [3] | Ki [3] | IC50 (D(3) dopamine receptor) | IC50 (Melanocortin receptor 5) | IC50 [4]

ClC1=C(Cl)[C@]2(Cl)[C@@H]3[C@@H]4C[C@@H]([C@H]5O[C@@H]45)[C@@H]3[C@@]1(Cl)C2(Cl)Cl [DIELDRIN]
Not Active: IC50 [1] | IC50 [2] | Ki [2] | IC50 [3] | Ki [3] | IC50 (D(3) dopamine receptor) | IC50 (Melanocortin receptor 5) | IC50 [4]

O=c1[nH]c2ccccc2c2ccccc12
Not Active: IC50 [1] | IC50 [2] | Ki [2] | IC50 [3] | Ki [3] | IC50 (D(3) dopamine receptor) | IC50 (Melanocortin receptor 5) | IC50 [4]

CCC1(c2ccccc2)C(=O)NC(=O)NC1=O [PHENOBARBITAL]
Not Active: IC50 [1] | IC50 [2] | Ki [2] | IC50 [3] | Ki [3] | IC50 (D(3) dopamine receptor) | IC50 (Melanocortin receptor 5) | IC50 [4]

Nc1ccc(C(=O)O)c(O)c1 [AMINOSALICYLIC ACID]
Not Active: IC50 [1] | IC50 [2] | Ki [2] | IC50 [3] | Ki [3] | IC50 (D(3) dopamine receptor) | IC50 (Melanocortin receptor 5) | IC50 [4]
